Experimental data: article PMC6217552, “Refining the structure−activity relationships of 2-phenylcyclopropane carboxylic acids as inhibitors of O-acetylserine sulfhydrylase isoforms” (Journal of Enzyme Inhibition and Medicinal Chemistry, 2018)
“And” between values parts separate entries of the source, which are not always exact repeats. Equal values may be shown once. Read-outs that look alike come from different tables or passages of the source.

What was measured:
StOASS-A [1] = molecular target: T1, StOASS-A (Salmonella typhimurium, UniProt P0A1E3); assay: Direct fluorimetric titration of PLP cofactor fluorescence (dissociation constant); type: binding, Salmonella enterica serovar Typhimurium; conditions: 100 mM HEPES pH 7.0, 1% DMSO, 20 °C; read-out: OASS-A Kd
T1 construct: made in house; host or cells: E. coli
Description: (§1) StOASS-A and StOASS-B, expressed in E. coli, were purified by metal affinity chromatography as described previously. Proteins were more that 95% pure based on SDS-PAGE analysis (data not shown).
(§2) Ligand affinity was measured by direct fluorimetric titrations, monitoring the fluorescence emission spectrum of cofactor PLP upon excitation at 412 nm. 0.1–1 µM OASS was titrated by increasing concentrations of ligand in 100 mM HEPES pH 7.0, 1% DMSO, at 20 °C. The dependence of fluorescence emission intensity on the concentration of compound was fitted to a binding isotherm: I=I0+ΔI·[ligand]/Kd+[ligand] where, I is the fluorescence emission intensity at a given ligand concentration, I 0 is the fluorescence emission intensity in the absence of ligand, ΔI is the amplitude and K d is the dissociation constant. When the K d was lower than the concentration of the protein used in the assay, the dependence of the fluoresecnce emission intensity on ligand concentration was fitted to a quadratic equation that describes tight binding. The fluorescence competitive binding assay, described elsewhere, was used to evaluate whether compounds bind at the active site of the enzyme or to an allosteric site. The assay is based on the formation of a low-affinity, highly fluorescent complex between OASS and 1-ethylcyclopropane-1,2-dicarboxylic acid. Binding of a higher affinity compound to the active site displaces 1-ethylcyclopropane-1,2-dicarboxylic acid and leads to a decrease in the fluorescence emission intensity.

StOASS-B [2] = molecular target: T2, StOASS-B (Salmonella typhimurium, UniProt P29848); assay: as above; type: binding
T2 construct: made in house; host or cells: E. coli
T2 sequence (P29848 1-303): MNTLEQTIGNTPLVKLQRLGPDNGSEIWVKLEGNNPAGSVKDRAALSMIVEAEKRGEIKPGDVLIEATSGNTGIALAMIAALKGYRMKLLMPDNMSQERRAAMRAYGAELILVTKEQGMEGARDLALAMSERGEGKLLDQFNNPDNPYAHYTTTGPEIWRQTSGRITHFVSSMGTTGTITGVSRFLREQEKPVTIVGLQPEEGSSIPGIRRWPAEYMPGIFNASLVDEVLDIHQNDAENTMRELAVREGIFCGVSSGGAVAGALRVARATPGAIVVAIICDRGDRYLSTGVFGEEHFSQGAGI
Description: as §1, §2

[3] = tested on: Escherichia coli ATCC25922; assay: Minimal inhibitory concentration (CLSI) in medium with limiting cysteine; type: cell-based; conditions: E. coli ATCC25922, medium with limiting cysteine; data not shown
Description: Minimal inhibitory concentration assays were performed according to the CLSI guidelines (Clinical and Laboratory Standards Institute; Performance Standards for Antimicrobial Susceptibility Testing; Twenty-Fourth Informational Supplement; CLSI document M100-S24, CLSI; 2014.). The compounds were dissolved in DMSO to obtain a stock solution 100-fold more concentrated than the desired higher concentration and then 10 serial dilutions were performed. One microliter of each dilution was transferred to the microtiter plate.
Escherichia coli ATCC25922 was grown until log phase on liquid Mueller–Hinton broth at 37 °C in a shaker at 225 rpm. Bacterial suspension was then centrifuged at 2500 rpm for 15 min and diluted with phosphate buffer to obtain a solution with a turbidity of about 0.5 McFarland. Bacterial suspension was further diluted (1:100) with fresh LB 20%. Fifty microliters of the bacterial suspension containing 10^6 CFU/mL were inoculated into each well, to obtain a final concentration of 5 × 10^5 CFU/mL. Each plate contained growth control wells and sterility check wells.
We investigated the ability of the new set of compounds to interfere with bacterial growth.

StOASS-A [4] = molecular target: T1, StOASS-A; assay: Steady-state enzyme activity assay, discontinuous ninhydrin cysteine determination; type: biochemical, Salmonella enterica serovar Typhimurium; conditions: 1 mM OAS, 0.6 mM Na2S, 6 nM OASS, 100 mM HEPES pH 7.0, 1% DMSO
Description: as §1
(§3) Enzyme activity under steady-state conditions was measured by a discontinuous method as described previously. Briefly, the reaction was carried out in 100 mM HEPES pH 7.0 in the presence of 6 nM OASS, 60 nM BSA to prevent enzyme adhesion to tube wall, 1 mM OAS (equal to the K m value of this subsrate), 0.6 mM Na2S (a saturating concentration), 1% DMSO and variable concentrations of inhibitor. Reaction was stopped at time intervals by the addition of acetic acid and concentration of cysteine was determined by a modification of the ninhydrin assay. The fractional velocity as a function of inhibitor concentration was determined and IC50 was calculated by the following equation: vi/v0=1/1+(I/IC50) where, v 0 is the reaction velocity in the absence of inhibitor and v i is reaction velocity in the presence of inhibitor at concentration [I].
(§4) For a competitive inhibitor against OAS the IC50 measured under these conditions is about 2⋅K d.

StOASS-B [5] = molecular target: T2, StOASS-B; assay: as above; type: biochemical
Description: as §1, §3, §4

E.coli = tested on: E.coli; set-up: method as in manuscript in preparation; conditions: ref manuscript in preparation, cited from earlier work

T1 sequence (P0A1E3 whole entry): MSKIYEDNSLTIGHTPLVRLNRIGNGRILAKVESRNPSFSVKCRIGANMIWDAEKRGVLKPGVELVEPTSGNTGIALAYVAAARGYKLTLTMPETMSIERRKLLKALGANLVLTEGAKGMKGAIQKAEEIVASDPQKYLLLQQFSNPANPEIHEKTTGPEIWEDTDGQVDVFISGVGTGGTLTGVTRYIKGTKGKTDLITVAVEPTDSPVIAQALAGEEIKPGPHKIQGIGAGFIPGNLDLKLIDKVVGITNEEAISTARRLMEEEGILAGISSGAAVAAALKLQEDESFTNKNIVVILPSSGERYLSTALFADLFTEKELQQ

Q: What does the source list for `Cc1ccc(CC2(C(=O)O)CC2c2ccc(N)cc2)cc1` (centres unmarked) [Compound 12, 2-(4-aminophenyl)-1-(4-methylbenzyl)cyclopropane-1-carboxylic acid]?
A: Kd (StOASS-A [1]): 1.4 ± 0.3 µM; Kd (StOASS-B [2]): 5.7 ± 0.7 µM; Interference with bacterial growth (MIC) [3]: none of the synthesised compounds was able to interfere significantly with bacterial growth

Q: What does the source list for `O=C(O)C1(Cc2ccncc2)CC1c1ccccc1` (centres unmarked) [Compound 33, 2-phenyl-1-(pyridin-4-ylmethyl)cyclopropane-1-carboxylic acid]?
A: Kd (StOASS-A [1]): 24 ± 2 µM; Kd (StOASS-B [2]): 275 ± 42 µM; Interference with bacterial growth (MIC) [3]: none of the synthesised compounds was able to interfere significantly with bacterial growth

Q: For `Cc1ccc(C[C@]2(C(=O)NCc3cccs3)C[C@H]2c2ccccc2)cc1` [Compound 19, (1R,2S)-1-(4-methylbenzyl)-2-phenyl-N-(thiophen-2-ylmethyl)cyclopropane-1-carboxamide], which IC50 (StOASS-A [4]) is on record?
A: Its IC50 is > 100 µM.

Q: What about the IC50 (StOASS-B [5]) of the same molecule?
A: The IC50 was > 100 µM.

Q: Which results are given for `Cc1ccc(C[C@]2(C(=O)NCc3ccccc3)C[C@H]2c2ccccc2)cc1` [Compound 18, (1R,2S)-1-N-benzyl-1-(4-methylbenzyl)-2-phenylcyclopropane-1-carboxamide]?
A: IC50 (StOASS-A [4]): > 100 µM; IC50 (StOASS-B [5]; read-out: OASS-B IC50, 1 mM OAS, 0.6 mM Na2S, 6 nM OASS, 100 mM HEPES pH 7.0, 1% DMSO): > 100 µM

Q: For `O=C(O)C1(Cn2cccn2)CC1c1ccccc1` (centres unmarked) [Compound 48, 1-((1H-pyrazol-1-yl)methyl)-2-phenylcyclopropane-1-carboxylic acid], which Kd (StOASS-A [1]) is on record?
A: Its Kd is 1.5 ± 0.2 µM.

Q: What about the Kd (StOASS-B [2]) of the same molecule?
A: Its Kd is 96 ± 7 µM.

Q: With `Cc1ccc(C[C@]2(C(=O)NCC3CCCO3)C[C@H]2c2ccccc2)cc1` (stereo partly drawn) [Compound 22, (1R,2S)-1-(4-methylbenzyl)-2-phenyl-N-((tetrahydrofuran-2-yl)methyl)cyclopropane-1-carboxamide] as the molecule, how does the IC50 (StOASS-A [4]) read?
A: Its IC50 is > 100 µM.

Q: What about the IC50 (StOASS-B [5]) of the same molecule?
A: The IC50 was > 100 µM.

Q: With “1-(4-methylbenzyl)-2-(pyridin-4-yl)cyclopropane-1-carboxylic acid [Compound 5]” as the molecule, how does the Kd (StOASS-A [1]) read?
A: Its Kd is 0.4 ± 0.1 µM.

Q: And the Kd (StOASS-B [2]; 100 mM HEPES pH 7.0, 1% DMSO, 20 °C, read-out: OASS-B Kd)?
A: The Kd was 6.1 ± 0.5 µM.

Q: And the “Interference with bacterial growth (MIC)” value [3]?
A: The value was “none of the synthesised compounds was able to interfere significantly with bacterial growth”.

Q: Which “Interference with bacterial growth (MIC)” value [3] does the source give for `Cc1ccc(C[C@]2(C(=O)N(C)C3CCOCC3)C[C@H]2c2ccccc2)cc1` [Compound 16, (1R,2S)-1-N-methyl-1-(4-methylbenzyl)-2-phenyl-N-(tetrahydro-2H-pyran-4-yl)cyclopropane-1-carboxamide] here?
A: Its value is “none of the synthesised compounds was able to interfere significantly with bacterial growth”.

Q: And the IC50 (StOASS-A [4])?
A: Its IC50 is 17.2 µM and 17 µM.

Q: What about the IC50 (StOASS-B [5]) of the same molecule?
A: Its IC50 is 137 ± 10 µM.

Q: For `Cc1ccc(C[C@@]2(C(=O)O)C[C@H]2c2ccccc2)cc1` [II, reference compound], which Kd (StOASS-A [1]) is on record?
A: The Kd was 0.03 ± 0.01 µM.

Q: And the Kd (StOASS-B [2])?
A: Its Kd is 0.5 ± 0.1 µM.

Q: And the “Inhibitory activity on cell growth” value (E.coli; E.coli, minimal medium)?
A: The value was “failed to show appreciable inhibitory activity on cell growth”.

Q: What about the “MIC with permeabilizing agent” value (E.coli; co-administration of sub-lethal concentrations of polymyxin B nonapeptide (PMBN)) of the same molecule?
A: Its value is “led to a measurable MIC”.

Q: Which Kd (StOASS-A [1]) does the source give for `c1ccc(C[C@]2(c3nnn[nH]3)C[C@H]2c2ccccc2)cc1` [Compound 29, (1R,2S)-5-(1-benzyl-2-phenylcyclopropyl)-1H-tetrazole] here?
A: Its Kd is 90 ± 14 µM.

Q: What does the source list for `O=C(O)C1(Cn2cccc2)CC1c1ccccc1` (centres unmarked) [Compound 49, 1-((1H-pyrrol-1-yl)methyl)-2-phenylcyclopropane-1-carboxylic acid]?
A: Kd (StOASS-A [1]): 0.5 ± 0.1 µM; Kd (StOASS-B [2]): 22 ± 2 µM

Q: With `N#C[C@@]1(Cc2ccccc2)C[C@H]1c1ccccc1` [Compound 28, (1R,2S)-1-benzyl-2-phenylcyclopropanecarbonitrile] as the molecule, how does the IC50 (StOASS-A [4]) read?
A: The IC50 was > 250 µM.

Q: Which Kd (StOASS-A [1]) does the source give for `Cc1ccc(CC2(C(=O)O)CC2c2ccc([N+](=O)[O-])cc2)cc1` (centres unmarked) [Compound 8, 1-(4-methylbenzyl)-2-(4-nitrophenyl)cyclopropane-1-carboxylic acid] here?
A: Its Kd is 61 ± 6 µM.

Q: And the Kd (StOASS-B [2])?
A: Its Kd is 145 ± 2 µM.

Q: Which results are given for `O=C(O)C1(Cn2ccnc2)CC1c1ccccc1` (centres unmarked) [Compound 47, 1-((1H-imidazol-1-yl)methyl)-2-phenylcyclopropane-1-carboxylic acid]?
A: Kd (StOASS-A [1]): 7.6 ± 0.5 µM; Kd (StOASS-B [2]): 397 ± 42 µM

Q: What does the source list for `O=C(O)C1(Cn2cncn2)CC1c1ccccc1` (centres unmarked) [Compound 50, 1-((1H-1,2,4-triazol-1-yl)methyl)-2-phenylcyclopropane-1-carboxylic acid]?
A: Kd (StOASS-A [1]): 18 ± 5 µM; Kd (StOASS-B [2]): 250 ± 14 µM

Q: With `Cc1ccc(CC2(C(=O)O)CC2c2ccc(CNC(C)C)cc2)cc1` (centres unmarked) [Compound 10, 2-(4-((isopropylamino)methyl)phenyl)-1-(4-methylbenzyl)cyclopropane-1-carboxylic acid] as the molecule, how does the Kd (StOASS-A [1]) read?
A: The Kd was 155 ± 5 µM.

Q: Which IC50 (StOASS-A [4]) does the source give for `CCN1CCCC1CNC(=O)[C@@]1(Cc2ccc(C)cc2)C[C@H]1c1ccccc1` (stereo partly drawn) [Compound 17, (1R,2S)-1-N-((1-ethylpyrrolidin-2-yl)methyl)-1-(4-methylbenzyl)-2-phenylcyclopropane-1-carboxamide] here?
A: Its IC50 is > 100 µM.

Q: And the IC50 (StOASS-B [5])?
A: Its IC50 is > 100 µM.

Q: Which IC50 (StOASS-A [4]) does the source give for `Cc1ccc(C[C@]2(C(=O)NCc3nccn3C)C[C@H]2c2ccccc2)cc1` [Compound 20, (1R,2S)-1-N-((1-methyl-1H-imidazol-2-yl)methyl)-1-(4-methylbenzyl)-2-phenylcyclopropane-1-carboxamide] here?
A: Its IC50 is > 100 µM.

Q: What about the IC50 (StOASS-B [5]) of the same molecule?
A: The IC50 was > 100 µM.

Q: Which results are given for `C#CCNC(=O)[C@@]1(Cc2ccc(C)cc2)C[C@H]1c1ccccc1` [Compound 21, (1R,2S)-1-(4-methylbenzyl)-2-phenyl-N-(prop-2-yn-1-yl)cyclopropane-1-carboxamide]?
A: IC50 (StOASS-A [4]): > 100 µM; IC50 (StOASS-B [5]): > 100 µM
